Test [1] has as its system Liposome. The test is described as follows: Mannose concentrations required for 50% turbidity reduction n the Surface of Liposomes. Type of test: functional, subcellular.
In test [2] the test system is Liposome. The test is described as follows: Mannose concentrations required for 50% turbidity reduction on the Surface of Liposomes. It counts as functional, subcellular.

Molecules are shown by their SMILES. Values joined by “and” are separate entries in the source; they are usually repeats but may differ in a detail not shown here. Equal entries are not always repeated.

As to `CCCCCCCC/C=C\CCCCCCCCOCC(COCCOCCOCCOCCNC(=O)C(CCCCNC(=O)C(CCCCNC(=O)COCCOCCS[C@@H]1O[C@H](CO)[C@@H](O)[C@@H](O)[C@@H]1O)NC(=O)COCCOCCS[C@@H]1O[C@H](CO)[C@@H](O)[C@@H](O)[C@@H]1O)NC(=O)C(CCCCNC(=O)COCCOCCS[C@@H]1O[C@H](CO)[C@@H](O)[C@@H](O)[C@@H]1O)NC(=O)COCCOCCS[C@@H]1O[C@H](CO)[C@@H](O)[C@@H](O)[C@@H]1O)OCCCCCCCC/C=C\CCCCCCCC` (some centres not stated), in test [1], the IC50 is 20 mM and 30 mM and 50 mM. As to `CCCCCCCC/C=C\CCCCCCCCOCC(COCCOCCOCCOCCNC(=O)CCS[C@H]1OC(CO)[C@@H](O)[C@@H](O)C1O)OCCCCCCCC/C=C\CCCCCCCC` (some centres not stated), the IC50 in test [2] is 2 mM and 4 mM and 5 mM.

What is called IC50 is the concentration needed to halve the response being measured. Lower therefore signals inhibition by little substance.

The record behind these values is ChEMBL document CHEMBL1136135, “Synthesis of an amphiphilic tetraantennary mannosyl conjugate and incorporation into liposome carriers” (Bioorg Med Chem Lett, 2003).
